Test results taken from US6737383B1, “Herbicidal oxadiazolidines” (priority 1999, dated 2004).

Tests used:
bamyardgrass = test: Test B flood test barnyardgrass; assay type: in vivo, Echinochloa crus-galli; conditions: for Plant response rating, Barnyardgrass (0 to 10 scale, 0 is no effect, 10 is complete control) / Barnyardgrass plant response rating (0 to 10 scale, 0 is no effect, 10 is complete control): visual evaluation after twelve to sixteen days; for Barnyardgrass plant response rating (0 to 10 scale, 0 is no effect, 10 is complete control): under heading Pre-emergence
Outline: (§1)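 Plants were grown to the 2-leaf stage before treatment with test chemical, then held in a greenhouse for twelve to sixteen days. Injury was visually rated against untreated controls on a 0–10 scale, where 0 is no effect and 10 is complete control.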

crabgrass = test: Test B pre/postemergence crabgrass; assay type: in vivo, Digitaria sanguinalis
Outline: (§2)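 Test chemicals in a non-phytotoxic solvent mixture with surfactant were sprayed preemergence onto planted seeds and postemergence onto plants 2 to 18 cm tall (1- to 4-leaf stage). After twelve to sixteen days in a greenhouse, injury was visually rated against untreated controls from 0 (no effect) to 10 (complete control).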

purple nutsedge = test: Test B pre/postemergence purple nutsedge; assay type: in vivo, Cyperus rotundus
Outline: as §2

duck salad = test: Test B flood test duck salad; assay type: in vivo, Heteranthera limosa; conditions: for Plant response rating, Ducksalad (0 to 10 scale, 0 is no effect, 10 is complete control) / Ducksalad plant response rating (0 to 10 scale, 0 is no effect, 10 is complete control): visual evaluation after twelve to sixteen days; for Ducksalad plant response rating (0 to 10 scale, 0 is no effect, 10 is complete control): under heading Pre-emergence
Outline: as §1

[1] = Postemergence (flood test), Rate 125 g/ha, scale 0 to 10, 0 is no effect, 10 is complete control
[2] = Postemergence section (flood test species), Rate 500 g/ha, scale of 0 to 10 where 0 is no effect and 10 is complete control
[3] = Rate 62 g/ha, Postemergence (flood test species), scale of 0 to 10 where 0 is no effect and 10 is complete control
[4] = flood test species, listed under Postemergence, Rate 250 g/ha, scale 0 to 10, 0 is no effect, 10 is complete control
[5] = Postemergence, Rate 250 g/ha, scale 0 to 10, 0 is no effect, 10 is complete control
[6] = Postemergence, Rate 500 g/ha, scale of 0 to 10 where 0 is no effect and 10 is complete control
[7] = Preemergence, Rate 62 g/ha, scale 0 to 10 (0 no effect, 10 complete control)
[8] = Preemergence, Rate 125 g/ha, scale of 0 to 10 where 0 is no effect and 10 is complete control
[9] = Preemergence, Rate 250 g/ha, scale 0 to 10, 0 is no effect, 10 is complete control
[10] = Preemergence, Rate 500 g/ha, scale 0 to 10, 0 is no effect, 10 is complete control
[11] = Rate 62 g/ha, Postemergence, scale of 0 to 10 where 0 is no effect and 10 is complete control
[12] = Rate 125 g/ha, Postemergence section (flood test species), scale 0 to 10, 0 is no effect, 10 is complete control
[13] = Rate 125 g/ha, Postemergence, scale 0 to 10, 0 is no effect, 10 is complete control
[14] = Postemergence block (flood test species), Rate 250 g/ha, scale 0 to 10
[15] = Postemergence, Rate 250 g/ha, scale 0 to 10
[16] = Rate 62 g/ha, flood test species, Pre-emergence
[17] = Rate 125 g/ha, flood test species
[18] = Rate 250 g/ha, Pre-emergence (flood test species), scale 0 to 10, 0 is no effect, 10 is complete control
[19] = Rate 500 g/ha, Pre-emergence, flood test species, scale 0 to 10 (0 no effect, 10 complete control)
[20] = Preemergence, Rate 62 g/ha, scale of 0 to 10 where 0 is no effect and 10 is complete control
[21] = Rate 62 g/ha, Postemergence, scale 0 to 10, 0 no effect, 10 complete control

Structure (SMILES) | Barnyardgrass plant response rating (bamyardgrass; [2]) | Barnyardgrass plant response rating (bamyardgrass; [3]) | Crabgrass plant response rating (crabgrass; [6]) | Plant response rating, Crabgrass (crabgrass; [7]) | Plant response rating, Crabgrass (crabgrass; [8]) | Crabgrass plant response rating (crabgrass; [9]) | Crabgrass plant response rating (crabgrass; [10]) | Crabgrass plant response rating (crabgrass; [11]) | Nutsedge plant response rating (purple nutsedge; [6]) | Plant response rating, Nutsedge (purple nutsedge; [7]) | Plant response rating, Nutsedge (purple nutsedge; [8]) | Nutsedge plant response rating (purple nutsedge; [9]) | Nutsedge plant response rating (purple nutsedge; [10]) | Ducksalad plant response rating (duck salad; [2]) | Ducksalad plant response rating (duck salad; [3]) | Barnyardgrass plant response rating (bamyardgrass; [12]) | Crabgrass plant response rating (crabgrass; [13]) | Nutsedge plant response rating (purple nutsedge; [13]) | Crabgrass plant response rating (crabgrass; [15]) | Nutsedge plant response rating (purple nutsedge; [15]) | other results
CC(C)N(C(=O)n1oc(=O)n(CCCC(F)(F)F)c1=O)c1ccc(F)cc1 [Compound 398] | 0 | 0 | 9 | 9 | 10 | 10 | 10 | 2 | 0 | 0 | 0 | 0 | 0 | 0 | 0 | – | – | – | – | – | Plant response rating, Barnyardgrass (bamyardgrass; [1]): 0; Plant response rating, Barnyardgrass (bamyardgrass; [4]): 0; Plant response rating, Crabgrass (crabgrass; Postemergence, Rate 125 g/ha, scale 0 to 10, 0 is no effect, 10 is complete control): 3; Plant response rating, Crabgrass (crabgrass; [5]): 9; Plant response rating, Nutsedge (purple nutsedge; [5]): 0; Nutsedge plant response rating (purple nutsedge; [11]): 0; Plant response rating, Ducksalad (duck salad; [1]): 0; Plant response rating, Ducksalad (duck salad; [4]): 0
CC(C)N(C(=O)n1oc(=O)n(CCl)c1=O)c1ccc(Cl)cc1 [Compound 422] | 0 | 0 | 0 | 0 | 0 | 0 | 0 | 0 | 0 | 0 | 0 | 0 | 0 | 0 | 0 | 0 | 0 | 0 | – | – | Plant response rating, Barnyardgrass (bamyardgrass; [4]): 0; Plant response rating, Crabgrass (crabgrass; [5]): 0; Plant response rating, Nutsedge (purple nutsedge; [5]): 0; Ducksalad plant response rating (duck salad; [12]): 0; Plant response rating, Ducksalad (duck salad; [4]): 0
CC(C)N(C(=O)n1oc(=O)n(CC2=NOCCC2)c1=O)c1ccccc1 [Compound 430] | 0 | 0 | 9 | 9 | 10 | 10 | 10 | 1 | 6 | 0 | 0 | 0 | 0 | 0 | 0 | 0 | 2 | 0 | 8 | 2 | Barnyardgrass plant response rating (bamyardgrass; [14]): 0; Ducksalad plant response rating (duck salad; [14]): 0; Ducksalad plant response rating (duck salad; [12]): 0
CC(C)N(C(=O)n1oc(=O)n(CCC#N)c1=O)c1ccc(F)cc1F [Compound 433] | 0 | 0 | 9 | 9 | 10 | 10 | 10 | 2 | 0 | 0 | 0 | 0 | 0 | 0 | 0 | 0 | 2 | 0 | 4 | 0 | Barnyardgrass plant response rating (bamyardgrass; [14]): 0; Ducksalad plant response rating (duck salad; [14]): 0; Ducksalad plant response rating (duck salad; [12]): 0
CC(C)N(C(=O)n1oc(=O)n(CCl)c1=O)c1ccc(F)cc1F [Compound 437] | – | – | 3 | – | 0 | 0 | 2 | – | 0 | – | 0 | 0 | 0 | – | – | – | 1 | 0 | 1 | 0 | Plant response rating, Barnyardgrass (0 to 10 scale, 0 is no effect, 10 is complete control) (bamyardgrass; [16]): 0; Barnyardgrass plant response rating (0 to 10 scale, 0 is no effect, 10 is complete control) (bamyardgrass; [17]): 0; Barnyardgrass plant response rating (bamyardgrass; [18]): 0; Barnyardgrass plant response rating (bamyardgrass; [19]): 0; Plant response rating, Crabgrass (crabgrass; [20]): 0; Crabgrass plant response rating (crabgrass; [21]): 0; Plant response rating, Nutsedge (purple nutsedge; [20]): 0; Nutsedge plant response rating (purple nutsedge; [21]): 0; Plant response rating, Ducksalad (0 to 10 scale, 0 is no effect, 10 is complete control) (duck salad; [16]): 0; Ducksalad plant response rating (0 to 10 scale, 0 is no effect, 10 is complete control) (duck salad; [17]): 0; Ducksalad plant response rating (duck salad; [18]): 0; Ducksalad plant response rating (duck salad; [19]): 0
COC(C)n1c(=O)on(C(=O)N(c2ccc(F)cc2)C(C)C)c1=O (centres unmarked) [Compound 439] | – | – | 0 | – | 0 | 0 | 0 | – | 0 | – | 0 | 0 | 0 | – | – | – | 0 | 0 | 0 | 0 | Plant response rating, Barnyardgrass (0 to 10 scale, 0 is no effect, 10 is complete control) (bamyardgrass; [16]): 0; Barnyardgrass plant response rating (0 to 10 scale, 0 is no effect, 10 is complete control) (bamyardgrass; [17]): 0; Barnyardgrass plant response rating (bamyardgrass; [18]): 0; Barnyardgrass plant response rating (bamyardgrass; [19]): 0; Plant response rating, Crabgrass (crabgrass; [20]): 0; Crabgrass plant response rating (crabgrass; [21]): 0; Plant response rating, Nutsedge (purple nutsedge; [20]): 0; Nutsedge plant response rating (purple nutsedge; [21]): 0; Plant response rating, Ducksalad (0 to 10 scale, 0 is no effect, 10 is complete control) (duck salad; [16]): 0; Ducksalad plant response rating (0 to 10 scale, 0 is no effect, 10 is complete control) (duck salad; [17]): 0; Ducksalad plant response rating (duck salad; [18]): 0; Ducksalad plant response rating (duck salad; [19]): 0
Cc1nc(C)c(C(C)n2c(=O)on(C(=O)N(c3ccc(F)cc3F)C(C)C)c2=O)s1 (centres unmarked) [Compound 443] | – | – | 0 | – | 6 | 9 | 9 | – | 0 | – | 0 | 0 | 0 | – | – | – | 0 | 0 | 0 | 0 | Plant response rating, Barnyardgrass (0 to 10 scale, 0 is no effect, 10 is complete control) (bamyardgrass; [16]): 0; Barnyardgrass plant response rating (0 to 10 scale, 0 is no effect, 10 is complete control) (bamyardgrass; [17]): 0; Barnyardgrass plant response rating (bamyardgrass; [18]): 0; Barnyardgrass plant response rating (bamyardgrass; [19]): 0; Plant response rating, Crabgrass (crabgrass; [20]): 5; Crabgrass plant response rating (crabgrass; [21]): 0; Plant response rating, Nutsedge (purple nutsedge; [20]): 0; Nutsedge plant response rating (purple nutsedge; [21]): 0; Plant response rating, Ducksalad (0 to 10 scale, 0 is no effect, 10 is complete control) (duck salad; [16]): 0; Ducksalad plant response rating (0 to 10 scale, 0 is no effect, 10 is complete control) (duck salad; [17]): 0; Ducksalad plant response rating (duck salad; [18]): 0; Ducksalad plant response rating (duck salad; [19]): 0
